The source of these data is ChEMBL document CHEMBL5316363, “Compounds Related to Saudin and Three New Series of Diterpenoids from Clutia lanceolata” (2023).

The species entered for this assay is Mus musculus. Briefly: Induction of glucose-triggered insulin secretion in BALB/c mouse islets of langerhans measured per islets incubated for 60 mins by ELISA analysis (reference value: 11.8 +/- 0.8 ng/hr). The format is functional. Conditions: 1 h.

`C[C@@H]1C(=O)O[C@@]23CC[C@@]4(C)C(=O)OC[C@]45O[C@@](C4=C[C@@H](O)OC4=O)(C[C@H]1[C@]25C)O3` gave an Activity of 18.3 ng/h.

As for `C[C@@H]1C(=O)O[C@@]23CC[C@@]4(C)C(=O)OC[C@]45O[C@@](c4ccoc4)(C[C@H]1[C@]25C)O3`, the Activity came out at 25.5 ng/h.

With `COC(=O)[C@]1(C)CCC[C@@]2(C)[C@@]3(O)[C@@H]([C@@H](OC(C)=O)[C@@]21O)[C@H](c1ccoc1)OC(=O)[C@@H]3C`, the Activity came out at 24.7 ng/h.

The compound `COC(=O)[C@]1(C)CCC[C@@]2(C)[C@@]3(O)[C@@H]([C@@H](O)[C@@]21O)[C@H](c1ccoc1)OC(=O)[C@@H]3C` registered an Activity of 8.2 ng/h.

For the compound `C[C@H]1C(=O)O[C@@H](c2ccoc2)C[C@H]1[C@@]1(C)CCC[C@@]2(C)C(=O)OC[C@H]12`, the Activity is 10.6 ng/h.

Regarding `C[C@@H]1C(=O)O[C@@]23CC[C@@]4(C)C(=O)OC[C@]45O[C@@](C4=CC(=O)OC4O)(C[C@H]1[C@]25C)O3` (stereo not given in full), the Activity turned out to be 20.8 ng/h.

The compound `CC(=O)O[C@@H]1[C@@H]2C(=C(C)C(=O)O[C@H]2c2ccoc2)[C@]2(C)[C@@H]3CC[C@@](C)(C(=O)O3)[C@@H]12` displayed an Activity of 8 ng/h.

Compound `CC(=O)O[C@H]1[C@@H]2[C@@H]([C@@H](C)C(=O)O[C@H]2c2ccoc2)[C@@]23CCC[C@@](C)(C(=O)OC2O)[C@@]13O` (stereo not given in full) registered an Activity of 16.6 ng/h.

`COC(=O)[C@]1(C)CCC[C@]2(C)[C@H]1[C@H](OC(C)=O)[C@H]1[C@H](c3ccoc3)OC(=O)[C@H](C)[C@]12O` gave an Activity of 7.5 ng/h.

On to `C[C@@H]1C(=O)O[C@@H](c2ccoc2)C[C@H]1[C@@]1(C)CCC[C@@]2(C)COC(=O)[C@@H]21`, for which the Activity was found to be 16.9 ng/h.

The compound `CC(=O)O[C@@H]1[C@H]2[C@H](c3ccoc3)OC(=O)[C@H](C)[C@@]2(O)[C@@]23CCC[C@@](C)(C(=O)OC2)[C@@]13O` registered an Activity of 8 ng/h.

`COC(=O)[C@]1(C)CC[C@@H](O)[C@@H]2C3=C(C)C(=O)O[C@@H](c4ccoc4)[C@@H]3[C@@H](OC(C)=O)[C@H]21` showed an Activity of 14.6 ng/h.

In turn, `COC(=O)[C@]1(C)CCC[C@@]2(C)C3=C(C)C(=O)O[C@@H](C4=CC(=O)OC4O)[C@@H]3[C@@H](OC(C)=O)[C@]12O` (stereo not given in full) registered an Activity of 16.4 ng/h.

`C[C@@H]1C(=O)O[C@@]23CC[C@@]4(C)C(=O)OC[C@]45O[C@@](C4=C[C@H](O)OC4=O)(C[C@H]1[C@]25C)O3` registered an Activity of 25.5 ng/h.

The compound `CCCCNC(=O)NS(=O)(=O)c1ccc(C)cc1` [TOLBUTAMIDE] displayed an Activity of 19.9 ng/h.

Regarding `COC(=O)[C@]1(C)CCC[C@@]2(C)C3=C(C)C(=O)O[C@@H](c4ccoc4)[C@@H]3[C@@H](OC(C)=O)[C@]12O`, the Activity was 9.3 ng/h.

For `C[C@@H]1C(=O)O[C@@]23COC(=O)[C@]2(C)CCC(=O)[C@@]3(C)[C@@H]1CC(=O)c1ccoc1`, the Activity was 16.3 ng/h.

For the compound `C[C@H]1C(=O)O[C@@]23COC(=O)[C@]2(C)CC[C@@]2(O)O[C@H](c4ccoc4)C[C@H]1[C@@]32C`, the Activity turned out to be 30.7 ng/h.

`C[C@H]1C(=O)O[C@@]23COC(=O)[C@]2(C)CCC(=O)[C@@]3(C)[C@@H]1CC(=O)c1ccoc1`: the Activity is 18.4 ng/h.

As to `COC(=O)[C@]1(C)CCCC2=C1[C@@H](OC(C)=O)[C@H]1[C@H](c3ccoc3)OC(=O)[C@@H](C)[C@@]21O`, the Activity came out at 12.5 ng/h.
